According to ChEMBL document CHEMBL1150435, “Inhibition of antennal esterases of the egyptian armyworm Spodoptera littoralis by trifluoromethyl ketones” (Bioorg Med Chem Lett, 1993):

Tests used:
[1] = Tested for the ability to inhibit antennal esterases of Spodoptera littoralis with pre-incubation
[2] = Tested for its ability to inhibit antennal esterases of Spodoptera littoralis without pre-incubation
[3] = Compound was tested for competitive inhibition of antennal esterases of Spodoptera littoralis
Spodoptera littoralis = experiment: Tested for its ability to inhibit antennal esterases of Spodoptera littoralis without pre-incubation at 63 uM concentration

SMILES | IC50 [1] [µM] | IC50 [2] [µM] | Ki [3] [µM] | inhibition (Spodoptera littoralis) [%]
CCCCCCCCCCCCCC(=O)C(F)(F)F | 4.4 | 11 | – | –
CCCCCCCCCCCCCCC(=O)C(F)(F)F | 18.4 | – | – | –
CCCCCCCCSCC(=O)C(F)(F)F | 0.55 | 3.7 | 25.1 | –
O=C(c1ccccc1)C(F)(F)F | 40.7 | – | – | 31
CCCCCCCCCCCCCCCCCC(=O)C(F)(F)F | – | – | – | 44
CCCCCCCCCCCCCCCCC(=O)C(F)(F)F | – | – | – | 50

More lines, now with the values ahead:

IC50 [1] [µM] | IC50 [2] [µM] | Ki [3] [µM] | inhibition (Spodoptera littoralis) [%] | SMILES
19.3 | – | – | – | CCCCCCCCCCC(=O)C(F)(F)F
1.16 | 10.6 | 29.8 | – | CCCCCCCCCCCCC(=O)C(F)(F)F
11.4 | 7.9 | 249 | – | O=C(c1ccc2ccccc2c1)C(F)(F)F
– | – | – | 43 | O=C(CCc1ccccc1)C(F)(F)F
– | – | – | 38 | O=C(c1cccc2ccccc12)C(F)(F)F
– | – | – | 36 | O=C(Cc1ccccc1)C(F)(F)F
